This passage reports IC50 results from patent US8598202B2, “Aryl-hydroxyethylamino-pyrimidines and triazines as modulators of fatty acid amide hydrolase” (Janssen Pharmaceutica NV, priority 2008, dated 2013).

One test addresses T1, Rat FAAH-1 (Rattus norvegicus, UniProt P97612).
T1 sequence (P97612 1-579): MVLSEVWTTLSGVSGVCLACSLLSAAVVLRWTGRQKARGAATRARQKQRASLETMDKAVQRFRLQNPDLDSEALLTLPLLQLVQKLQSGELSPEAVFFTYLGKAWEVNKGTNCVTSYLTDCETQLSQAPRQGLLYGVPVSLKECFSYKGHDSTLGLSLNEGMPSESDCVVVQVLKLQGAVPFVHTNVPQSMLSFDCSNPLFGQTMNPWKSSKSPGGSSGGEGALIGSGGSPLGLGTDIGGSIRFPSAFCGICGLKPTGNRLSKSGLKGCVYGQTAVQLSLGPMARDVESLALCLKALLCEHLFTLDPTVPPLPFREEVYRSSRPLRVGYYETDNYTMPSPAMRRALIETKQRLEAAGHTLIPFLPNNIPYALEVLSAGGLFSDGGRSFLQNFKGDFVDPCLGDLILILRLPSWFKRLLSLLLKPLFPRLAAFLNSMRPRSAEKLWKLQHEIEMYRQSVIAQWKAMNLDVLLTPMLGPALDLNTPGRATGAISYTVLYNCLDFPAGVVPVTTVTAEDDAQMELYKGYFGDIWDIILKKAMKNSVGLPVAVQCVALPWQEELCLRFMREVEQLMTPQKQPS
Nature of the test: Assay Method 2: rat FAAH-1 assay, 3H-anandamide hydrolysis in homogenate of SK-N-MC cells transfected with rat FAAH.

Another test concerns the target T2, FAAH (Homo sapiens, UniProt O00519).
T2 sequence (O00519 1-579): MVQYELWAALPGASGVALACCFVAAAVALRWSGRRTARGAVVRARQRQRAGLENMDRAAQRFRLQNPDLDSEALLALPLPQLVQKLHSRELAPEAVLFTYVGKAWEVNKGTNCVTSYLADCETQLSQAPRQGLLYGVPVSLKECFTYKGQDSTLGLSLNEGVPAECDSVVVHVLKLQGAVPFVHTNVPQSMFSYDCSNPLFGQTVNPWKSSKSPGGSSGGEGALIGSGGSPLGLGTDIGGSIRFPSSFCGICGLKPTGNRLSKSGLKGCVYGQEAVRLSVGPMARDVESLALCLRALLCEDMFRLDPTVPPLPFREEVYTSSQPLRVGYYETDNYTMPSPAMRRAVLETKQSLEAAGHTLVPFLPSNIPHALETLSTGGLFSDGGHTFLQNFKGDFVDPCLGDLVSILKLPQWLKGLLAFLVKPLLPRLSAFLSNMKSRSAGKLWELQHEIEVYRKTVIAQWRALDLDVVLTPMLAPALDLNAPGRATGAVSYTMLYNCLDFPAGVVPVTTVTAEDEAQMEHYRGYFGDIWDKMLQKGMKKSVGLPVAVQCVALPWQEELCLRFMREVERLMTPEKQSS
Nature of the test: Assay Method 1: FAAH assay, 3H-anandamide hydrolysis in homogenate of T84 cells or SK-N-MC cells transfected with human FAAH.

One may read the IC50 as the concentration needed to halve the response being measured.

Where a name gives a salt, the structure may show the parent alone.

`CSc1ccc(C(O)CNc2cc(-c3ccc(C(F)(F)F)c(Cl)c3)ncn2)cc1` (centres unmarked) [Example 167, 2-({6-[3-Chloro-4-(trifluoromethyl)phenyl]pyrimidin-4-yl}amino)-1-[4-(methylsulfanyl)phenyl]ethanol]: the figures for the IC50 on Rat FAAH-1 and on FAAH were 0.02 µM and 0.06 µM, respectively.

As for `OC(CNc1cc(-c2ccc(C(F)(F)F)c(Cl)c2)ncn1)c1ccsc1` (centres unmarked) [Example 168, 2-({6-[3-Chloro-4-(trifluoromethyl)phenyl]pyrimidin-4-yl}amino)-1-thiophen-3-ylethanol], the values for the IC50 against Rat FAAH-1 and on FAAH were 0.042 µM and 0.066 µM, respectively.

With `OC(CNc1cc(-c2ccc(C(F)(F)F)c(Cl)c2)ncn1)c1nccs1` (centres unmarked) [Example 169, 2-({6-[3-Chloro-4-(trifluoromethyl)phenyl]pyrimidin-4-yl}amino)-1-(1,3-thiazol-2-yl)ethanol], the IC50 was 8 µM against Rat FAAH-1 and 6 µM on FAAH.

Turning to `O[C@@H](CNc1cc(-c2ccc3ncccc3c2)ncn1)c1ccccc1` [Example 170, (1R)-1-Phenyl-2-[(6-quinolin-6-ylpyrimidin-4-yl)amino]ethanol], the values for the IC50 against Rat FAAH-1 and against FAAH were 4 µM and 0.081 µM, respectively.

As to `CC(C)(C)NS(=O)(=O)c1ccc(-c2cc(NC[C@H](O)c3ccccc3)ncn2)cc1` [Example 171, N-tert-Butyl-4-(6-{[(2R)-2-hydroxy-2-phenylethyl]amino}pyrimidin-4-yl)benzenesulfonamide], the results for the IC50 at Rat FAAH-1 and against FAAH were more than 10 µM and 1.6 µM, respectively.

On to `O=S(=O)(c1ccc(-c2cc(NC[C@H](O)c3ccccc3)ncn2)cc1)N1CCSCC1` [Example 172, (1R)-1-Phenyl-2-({6-[4-(thiomorpholin-4-ylsulfonyl)phenyl]pyrimidin-4-yl}amino)ethanol], for which the IC50 at Rat FAAH-1 amounted to 1.5 µM; against FAAH, 8 µM.

For the compound `O[C@@H](CNc1cc(-c2ccc(C(F)(F)F)c(F)c2)ncn1)c1ccc(F)cc1` [Example 173, (1R)-1-(4-Fluorophenyl)-2-({6-[3-fluoro-4-(trifluoromethyl)phenyl]pyrimidin-4-yl}amino)ethanol], the results for the IC50 against Rat FAAH-1 and against FAAH were 0.011 µM and 0.002 µM, respectively.

Consider `O[C@@H](CNc1cc(-c2ccc(OC(F)(F)F)c(F)c2)ncn1)c1ccc(F)cc1` [Example 174, (1R)-1-(4-Fluorophenyl)-2-({6-[3-fluoro-4-(trifluoromethoxy)phenyl]pyrimidin-4-yl}amino)ethanol trifluoroacetic acid salt], for which the IC50 at Rat FAAH-1 is 0.005 µM; against FAAH it was 0.002 µM.

In the case of `O[C@@H](CNc1cc(-c2ccc(OC(F)(F)F)c(Cl)c2)ncn1)c1ccc(F)cc1` [Example 175, (1R)-2-({6-[3-Chloro-4-(trifluoromethoxy)phenyl]pyrimidin-4-yl}amino)-1-(4-fluorophenyl)ethanol trifluoroacetic acid salt], the figures for the IC50 at Rat FAAH-1 and against FAAH were 0.003 µM and 0.002 µM, respectively.

`O[C@@H](CNc1cc(-c2ccc3c(C(F)(F)C(F)(F)F)noc3c2)ncn1)c1ccc(F)cc1` [Example 176, (1R)-1-(4-fluorophenyl)-2-({6-[3-(pentafluoroethyl)-1,2-benzisoxazol-6-yl]pyrimidin-4-yl}amino)ethanol trifluoroacetic acid salt]: the figures for the IC50 against Rat FAAH-1 and on FAAH were 0.01 µM and 0.009 µM, respectively.

Regarding `O[C@@H](CNc1cc(-c2ccc3c(C(F)(F)F)noc3c2)ncn1)c1ccc(F)cc1` [Example 177, (1R)-1-(4-Fluorophenyl)-2-({6-[3-(trifluoromethyl)-1,2-benzisoxazol-6-yl]pyrimidin-4-yl}amino)ethanol trifluoroacetic acid salt], the IC50 against Rat FAAH-1 and on FAAH was 0.003 µM each time.

For `C[C@H](Nc1cc(-c2ccc(C(F)(F)F)c(Cl)c2)ncn1)[C@H](O)c1ccccc1` [Example 179], the IC50 turned out to be 0.04 µM against Rat FAAH-1 and 0.009 µM at FAAH.

`O[C@@H](CNc1cc(-c2ccc(OC(F)(F)F)c(Cl)c2)ncn1)c1ccccc1` [Example 181, (1R)-2-({6-[3-Chloro-4-(trifluoromethoxy)phenyl]pyrimidin-4-yl}amino)-1-phenylethanol]: the results for the IC50 at Rat FAAH-1 and against FAAH were 0.02 µM and 0.007 µM, respectively.

`O[C@@H](CNc1cc(-c2ccc3c(C(F)(F)F)noc3c2)ncn1)c1ccccc1` [Example 182, (1R)-1-Phenyl-2-({6-[3-(trifluoromethyl)-1,2-benzisoxazol-6-yl]pyrimidin-4-yl}amino)ethanol]: the values for the IC50 on Rat FAAH-1 and on FAAH were 0.004 µM and 0.01 µM, respectively.

For the compound `O[C@@H](CNc1cc(-c2ccc3c(c2)OC(F)(F)O3)ncn1)c1ccccc1` [Example 183, (1R)-2-{[6-(2,2-Difluoro-1,3-benzodioxol-5-yl)pyrimidin-4-yl]amino}-1-phenylethanol], the IC50 on Rat FAAH-1 is 0.089 µM; at FAAH it was 0.036 µM.

For the compound `O[C@@H](CNc1cc(-c2cc3cc(C(F)(F)F)ccc3s2)ncn1)c1ccccc1` [Example 184, (1R)-1-Phenyl-2-({6-[5-(trifluoromethyl)-1-benzothiophen-2-yl]pyrimidin-4-yl}amino)ethanol trifluoroacetic acid salt], the results for the IC50 against Rat FAAH-1 and at FAAH were 0.16 µM and 0.031 µM, respectively.

On to `O[C@@H](CNc1cc(-c2cc3cc(OC(F)(F)F)ccc3s2)ncn1)c1ccccc1` [Example 185, (1R)-1-Phenyl-2-({6-[5-(trifluoromethoxy)-1-benzothiophen-2-yl]pyrimidin-4-yl}amino)ethanol trifluoroacetic acid salt], for which the values for the IC50 on Rat FAAH-1 and against FAAH were 0.09 µM and 0.02 µM, respectively.

On to `O[C@@H](CNc1cc(-c2cc3ccc(C(F)(F)F)cc3s2)ncn1)c1ccccc1` [Example 186, (1R)-1-Phenyl-2-({6-[6-(trifluoromethyl)-1-benzothiophen-2-yl]pyrimidin-4-yl}amino)ethanol trifluoroacetic acid salt], for which the IC50 against Rat FAAH-1 is more than 10 µM; against FAAH, 7.07 µM.

Regarding `O[C@@H](CNc1cc(-c2cc3cc(F)ccc3s2)ncn1)c1ccccc1` [Example 187, (1R)-2-{[6-(5-Fluoro-1-benzothiophen-2-yl)pyrimidin-4-yl}amino]-1-Phenylethanol], the IC50 worked out at 0.4 µM against Rat FAAH-1 and 0.02 µM at FAAH.

For `O[C@@H](CNc1cc(-c2ccc3c(C(F)(F)C(F)(F)F)noc3c2)ncn1)c1ccccc1` [Example 188, (1R)-2-({6-[3-(pentafluoroethyl)-1,2-benzisoxazol-6-yl]pyrimidin-4-yl}amino)-1-phenylethanol trifluoroacetic acid salt], the figures for the IC50 against Rat FAAH-1 and at FAAH were 0.035 µM and 0.024 µM, respectively.

As for `OC(CNc1cc(-c2ccc(C(F)(F)F)c(Cl)c2)ncn1)c1ccccc1OC(F)F` (centres unmarked) [Example 189, 2-({6-[3-Chloro-4-(trifluoromethyl)phenyl]pyrimidin-4-yl}amino)-1-[2-(difluoromethoxy)phenyl]ethanol], the IC50 against Rat FAAH-1 amounted to 0.15 µM; against FAAH it was 0.17 µM.

With `OC(CNc1cc(-c2ccc(C(F)(F)F)c(Cl)c2)ncn1)c1ccc(F)cc1` (centres unmarked) [Example 190, 2-({6-[3-Chloro-4-(trifluoromethyl)phenyl]pyrimidin-4-yl}amino)-1-(4-fluorophenyl)ethanol], the IC50 at Rat FAAH-1 was determined as 0.012 µM; against FAAH it was 0.007 µM.

Turning to `N#Cc1ccc(C(O)CNc2cc(-c3ccc(C(F)(F)F)c(Cl)c3)ncn2)cc1` (centres unmarked) [Example 191, 4-[2-({6-[3-Chloro-4-(trifluoromethyl)phenyl]pyrimidin-4-yl}amino)-1-hydroxyethyl]benzonitrile], the IC50 against Rat FAAH-1 was 0.007 µM; against FAAH, 0.019 µM.

As for `OC(CNc1cc(-c2ccc(C(F)(F)F)c(Cl)c2)ncn1)c1ccc2ccccc2c1` (centres unmarked) [Example 192, 2-({6-[3-Chloro-4-(trifluoromethyl)phenyl]pyrimidin-4-yl}amino)-1-naphthalen-2-ylethanol], the IC50 on Rat FAAH-1 worked out at 0.006 µM; at FAAH, 0.047 µM.

Take `OC(CNc1cc(-c2ccc(C(F)(F)F)c(Cl)c2)ncn1)c1ccc(-c2ccccn2)cc1` (centres unmarked) [Example 193, 2-({6-[3-Chloro-4-(trifluoromethyl)phenyl]pyrimidin-4-yl}amino)-1-(4-Pyridin-2-ylphenyl)ethanol]: the IC50 at Rat FAAH-1 was found to be 0.85 µM; against FAAH, 0.04 µM.
